According to PubChem BioAssay (NCI):
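48-hour exposure; five concentrations; linearly interpolated endpoints. GI50 = concentration required for 50% inhibition of growth. TGI marks complete inhibition of growth.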

Columns and labels:
Assay in all cases: inhibition of tumour cell growth, NCI panel, 48 h
786-0 renal = system: 786-0 renal
A498 renal = system: A498 renal
A549 NSCLC = system: A549 NSCLC
ACHN renal = system: ACHN renal
BT-549 breast = system: BT-549 breast
CAKI-1 renal = system: CAKI-1 renal
CCRF-CEM leukemia = system: CCRF-CEM leukemia
COLO 205 colon = system: COLO 205 colon
DU-145 prostate = system: DU-145 prostate
EKVX NSCLC = system: EKVX NSCLC
HCC-2998 colon = system: HCC-2998 colon
HCT-116 colon = system: HCT-116 colon
HCT-15 colon = system: HCT-15 colon
HL-60(TB) leukemia = system: HL-60(TB) leukemia
HOP-62 NSCLC = system: HOP-62 NSCLC
HOP-92 NSCLC = system: HOP-92 NSCLC
HS 578T breast = system: HS 578T breast
HT29 colon = system: HT29 colon
IGROV1 ovarian = system: IGROV1 ovarian
K-562 leukemia = system: K-562 leukemia
KM12 colon = system: KM12 colon
LOX IMVI melanoma = system: LOX IMVI melanoma
M14 melanoma = system: M14 melanoma
MALME-3M melanoma = system: MALME-3M melanoma
MCF7 breast = system: MCF7 breast
MDA-MB-231 breast = system: MDA-MB-231 breast
MDA-MB-435 = system: MDA-MB-435
MOLT-4 leukemia = system: MOLT-4 leukemia
NCI-H226 lung = system: NCI-H226 lung

## CN(C)CCCOc1c2ccc(Cl)cc2nc2c1oc1ccccc12
786-0 renal
  GI50: 1780 nM
  TGI: 11200 nM
A498 renal
  GI50: 3140 nM
  TGI: 8920 nM
A549 NSCLC
  GI50: 1550 nM
  TGI: 11200 nM
ACHN renal
  GI50: 623 nM
  TGI: 12500 nM
BT-549 breast
  GI50: 2080 nM
  TGI: 7230 nM
CAKI-1 renal
  GI50: 888 nM
  TGI: 10400 nM
CCRF-CEM leukemia
  GI50: 2100 nM
  TGI: 11100 nM
COLO 205 colon
  GI50: 1080 nM
  TGI: 2520 nM
DU-145 prostate
  GI50: 2260 nM
  TGI: 14000 nM
EKVX NSCLC
  GI50: 2640 nM
  TGI: 10300 nM
HCC-2998 colon
  GI50: 1030 nM
  TGI: 2530 nM
HCT-116 colon
  GI50: 437 nM
  TGI: 10100 nM
HCT-15 colon
  GI50: 1070 nM
  TGI: 10100 nM
HL-60(TB) leukemia
  GI50: 1830 nM
  TGI: 5880 nM
HOP-62 NSCLC
  GI50: 2090 nM
  TGI: 11600 nM
HOP-92 NSCLC
  GI50: 584 nM
  TGI: 3590 nM
HS 578T breast
  GI50: 2150 nM
  TGI: 10100 nM
HT29 colon
  GI50: 713 nM
  TGI: 3000 nM
IGROV1 ovarian
  GI50: 2140 nM
  TGI: 12000 nM
K-562 leukemia
  GI50: 620 nM
  TGI: 13900 nM
KM12 colon
  GI50: 1870 nM
  TGI: 11900 nM
LOX IMVI melanoma
  GI50: 516 nM
  TGI: 1830 nM
M14 melanoma
  GI50: 1500 nM
  TGI: 3130 nM
MALME-3M melanoma
  GI50: 1730 nM
  TGI: 3820 nM
MCF7 breast
  GI50: 1170 nM
  TGI: 5480 nM
MDA-MB-231 breast
  GI50: 1800 nM
  TGI: 8490 nM
MDA-MB-435
  GI50: 1550 nM
  TGI: 3090 nM
MOLT-4 leukemia
  GI50: 497 nM
  TGI: 10500 nM
NCI-H226 lung
  GI50: 2140 nM
